Reference: patent US8647643B2, “Farnesoid-X-receptor antagonist as a vaccine adjuvant” (priority 2008, dated 2014)

Legend:
rHBsAg antigen = assay: Anti-HBsAg antibody titers after immunization of rats with rHBsAg plus BB adjuvant; format: in vivo; conditions: Wistar rats, rHBsAg 10 μg intramuscular day 0, serum every 14 days; BB-50 uM, BB-5 uM
[1] = system: rDNA coding Rabies antigen; set-up: species or system Swiss albino mice; conditions: mouse, in vivo
[2] = system: inactivated rabies virus (Rabipur); set-up: species or system mice; conditions: mouse, in vivo
[3] = system: Recombinant NE protein of hepatitis E virus; assay: Sero-conversion after recombinant NE protein of hepatitis E virus mixed with BB; format: in vivo; conditions: 1 μg NE protein with 5 μM of BB, intramuscularly
[4] = system: cancer cells (Mia-paca 2); assay: Interferon gamma ELISPOT on splenocytes after immunization with cancer cells with/without BB; format: in vivo, mice
[5] = Water solubility (statement); format: physicochemical

CC(=O)C1=CC[C@H]2[C@@H]3CC=C4C[C@@H](O)CC[C@]4(C)[C@H]3CC[C@]12C [BB, 3β-hydroxy-5,16-pregnadien-20-one]
ranking as adjuvant (anti-HBsAg antibodies) (rHBsAg antigen): lead adjuvants
day on which antibody titers are protective, after 1st dose of vaccine [1]: 28 days
time the titers remained protective [1]: about 100 days
antibody response compared with rabies vaccine without adjuvant [2]: faster and stronger response
day on which titers were protective [2]: 14 days
sero-conversion ([3]; after 2nd injection given 2 weeks later): 100%
sero-conversion ([3]; day 14 after 1st injection): 60%
effect of the generated immune response on tumor size ([4]; BB with cancer cells (Mia-paca 2)): reduction of tumor size
IFN-g ELISPOT response relative to the mycobacterium adjuvanted group ([4]; doses day 1 and day 21, splenocytes day 28): more then three times greater response
water solubility [5]: water insoluble
